# Data published in US11591359B2, “Enzyme-specific intracellularly-retained red fluorescent probe” (priority 2016, dated 2023).
# “Also recorded” adds a separate entry of the source.
# Columns and labels:
# β-galactosidase [1] = target: T1, β-galactosidase (Escherichia coli, UniProt P00722); assay: Changes in absorption and fluorescence spectra by enzyme reaction; type: biochemical; conditions: 1 μM probe in PBS buffer, 5U β-galactosidase; for fluorescence emission in response to enzyme activity of β-galactosidase: excitation 610 nm, fluorescence 638 nm, 3600 seconds
# Description: For the probe compounds of the present invention obtained in Example 1 (4-CH2F-SPiDER-RED-βGal and 2-CH2F-SPiDER-RED-βGal), changes in absorption and fluorescence spectra according to the addition of β-galactosidase were measured. The measurement results of 4-CH2F-SPiDER-RED-βGal are shown in FIG. 1, and the measurement results of 2-CH2F-SPiDER-RED-βGal are shown in FIG. 2.
# The measurement conditions are as follows: an excitation wavelength of 610 nm, a slit (excitation/fluorescence) of 2.5 nm/2.5 nm, and a photomultiplier voltage of 700 V.
# Measurements were carried out by adding 5U β-galactosidase to 2-CH2F-SPiDER-RED-βGal prepared at 1 μM in a PBS buffer solution. […] The measurement conditions are as follows: an excitation wavelength of 610 nm, a slit (excitation/fluorescence) of 2.5 nm/2.5 nm, and a photomultiplier voltage of […].
# β-galactosidase [2] = target: T1, β-galactosidase; assay: Labeling of fluorescent dye to BSA protein by β-galactosidase enzyme reaction in presence of BSA (SDS-PAGE fluorescence); type: biochemical; conditions: 1 mg/mL BSA, 5U β-galactosidase in PBS; for fluorescent labeling of BSA (fluorescence at the position of BSA after SDS electrophoresis): 10 μM compound, excitation 488 nm, fluorescence 540 to 600 nm
# Description: The measurement results of 4-CH2F-SPiDER-RED-βGal are shown in FIG. 3, and the measurement results of 2-CH2F-SPiDER-RED-βGal are shown in FIG. 4.
# Using 1) 10 μL of a PBS buffer solution containing 10 μM […], 1 mg/mL BSA, and 5U β-galactosidase, 2) 10 μL of a PBS buffer solution containing 10 μM 4-CH2F-SPiDER-RED-βGal and 1 mg/mL BSA, 3) 10 μL of a PBS buffer solution containing 10 μM 4-CH2F-SPiDER-RED-βGal and 5U β-galactosidase, 4) 10 μL of a PBS buffer solution containing only 10 μM 4-CH2F-SPiDER-RED-βGal, and 5) 10 μL of a PBS buffer solution containing 10 μM 4-CH2OH-SPiDER-RED, the reaction products were subjected to SDS-PAGE (running gel: 10%, stacking gel: 4%, electrophoresis voltage: 200 V). […] After observation, each gel was Coomassie stained and the position of the BSA on the gel was confirmed (FIG. 3(b)).
# FIGS. 4(a) and 4(b) show the results of similar measurement using 10 μM 2-CH2F-SPiDER-RED-βGal instead of 10 μM 4-CH2F-SPiDER-RED-βGal.
# [3] = tested on: cells not expressing β-galactosidase (HEK); assay: Fluorescence imaging of living cells, co-cultured cells not expressing β-galactosidase; type: cell-based; conditions: 37° C. for 30 minutes, no washing; excitation 594 nm, fluorescence 610 to 700 nm
# Description: (§1) 4-CHF2-SPiDER-RED-βGal was added to a dish in which cells expressing β-galactosidase (HEK-lacZ) and cells not expressing β-galactosidase (HEK) were co-cultured, and incubated at 37° C. for 30 minutes. The HEK cells were previously stained with CellTracker (TM) Green. A fluorescence image and a transmitted light image were acquired using a confocal microscope (TCS SP5X; manufactured by Leica). White light laser (WLL) was used as laser, and HCX PL APO CS 40×/1.25 (40 times, manufactured by Leica) was used as an objective lens. The observation conditions were as follows: an excitation wavelength: 594 nm, a fluorescence wavelength: 610 to 700 nm, and a scale: 25 μm.
# [4] = tested on: Wing discs of a drosophila (en-lacZ/dpp-GFP) expressing β-galactosidase and GFP; assay: Non-fixed fluorescence imaging of living biological tissue having β-galactosidase activity; type: cell-based, Drosophila melanogaster; conditions: room temperature for 2 hours, excitation 594 nm, fluorescence 601 to 681 nm
# Description: Next, we have examined whether the probe compound of the present invention, 4-CHF2-SPiDER-RED-βGal, can be applied to fluorescence imaging of living biological tissues by using drosophila tissues.
# Wing discs of a drosophila (Drosophila melanogaster, en-lacZ/dpp-GFP) expressing β-galactosidase and GFP in some tissues were incubated with 4-CHF2-SPiDER-RED-βGal and Hoechst 33342 at room temperature for 2 hours, and then observed under a confocal microscope (TCS SP8, manufactured by Leica). White light laser (WLL) was used as laser, and HCX PL APO CS 40×/1.25 (40 times, manufactured by Leica) was used as an objective lens. The measurement conditions are as follows: excitation wavelengths: 405 nm (Hoechst 33342), 488 nm (GFP), 594 nm (4-CHF2-SPiDER-RED-βGal), fluorescence wavelengths: 420 to 490 nm (Hoechst 33342), 490 to 570 nm (GFP), 601 to 681 nm (4-CHF2-SPiDER-RED-βGal), and a scale: 75 μm.
# [5] = tested on: cells expressing β-galactosidase (HEK-lacZ); assay: Fluorescence imaging of living cells expressing β-galactosidase (co-culture, confocal microscope); type: cell-based; conditions: 37° C. for 30 minutes, no washing; excitation 594 nm, fluorescence 610 to 700 nm
# Description: as §1
# T1 sequence (P00722 2-1024): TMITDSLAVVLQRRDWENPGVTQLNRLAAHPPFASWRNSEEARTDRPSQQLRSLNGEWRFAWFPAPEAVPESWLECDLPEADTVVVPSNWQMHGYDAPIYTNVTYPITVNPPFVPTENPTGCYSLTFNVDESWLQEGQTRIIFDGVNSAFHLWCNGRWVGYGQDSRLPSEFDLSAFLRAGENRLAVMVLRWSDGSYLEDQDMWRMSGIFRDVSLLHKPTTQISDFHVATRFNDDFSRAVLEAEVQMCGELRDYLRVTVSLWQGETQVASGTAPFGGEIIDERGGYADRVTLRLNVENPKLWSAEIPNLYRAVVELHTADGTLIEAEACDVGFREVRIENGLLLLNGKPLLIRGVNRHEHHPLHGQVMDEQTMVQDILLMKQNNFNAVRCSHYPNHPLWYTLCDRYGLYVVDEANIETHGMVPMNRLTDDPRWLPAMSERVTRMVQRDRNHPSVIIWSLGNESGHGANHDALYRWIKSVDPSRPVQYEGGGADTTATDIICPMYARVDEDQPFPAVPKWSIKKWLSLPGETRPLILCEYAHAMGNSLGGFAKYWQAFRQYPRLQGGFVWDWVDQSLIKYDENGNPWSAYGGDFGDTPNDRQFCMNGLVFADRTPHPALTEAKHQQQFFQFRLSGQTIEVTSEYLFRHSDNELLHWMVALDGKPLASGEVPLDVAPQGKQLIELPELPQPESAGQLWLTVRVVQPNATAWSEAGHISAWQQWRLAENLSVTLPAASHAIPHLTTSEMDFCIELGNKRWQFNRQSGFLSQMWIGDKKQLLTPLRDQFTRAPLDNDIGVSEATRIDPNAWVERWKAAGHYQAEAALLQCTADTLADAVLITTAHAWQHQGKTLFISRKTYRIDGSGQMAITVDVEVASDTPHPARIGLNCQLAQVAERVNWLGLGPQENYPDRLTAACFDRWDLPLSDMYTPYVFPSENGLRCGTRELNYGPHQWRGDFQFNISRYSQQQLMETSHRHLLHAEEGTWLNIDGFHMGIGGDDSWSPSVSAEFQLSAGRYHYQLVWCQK
Compound,fluorescence emission in response to enzyme activity of β-galactosidase (β-galactosidase [1]),fluorescent labeling of BSA (fluorescence at the position of BSA after SDS electrophoresis) (β-galactosidase [2]),fluorescent labeling of BSA (fluorescence at the position of BSA after SDS electrophoresis) (β-galactosidase [2]; listed as 2-CHF2-SPiDER-RED-βGal),fluorescence intensity of labeled BSA (comparison of the two probes) (β-galactosidase [2]; 10 μM probe),reactivity with the enzyme (β-galactosidase [2]; 10 μM probe),red fluorescence signal in HEK cells not expressing β-galactosidase [3],"selective fluorescence imaging of the region / cells having β-galactosidase activity in living tissue ([4]; with Hoechst 33342, listed as 4-CHF2-SPiDER-RED-βGal)",diffusion of fluorescence of the enzyme reaction product in tissue [4],fluorescence increasing rate (comparison of the two probes) (β-galactosidase [1]),reactivity with β-galactosidase (comparison of the two probes) (β-galactosidase [1]),red fluorescence in HEK-lacZ cells [5]
CN(C)c1ccc2c(c1)[Si](C)(C)c1cc(O[C@@H]3O[C@H](CO)[C@H](O)[C@H](O)[C@H]3O)c(CF)cc1C21OC(=O)c2ccccc21 (some centres unmarked) [2-CH2F-SPiDER-RED-βGal],emit fluorescence specifically in response to enzyme activity of β-galactosidase,fluorescently label bovine serum albumin (BSA) protein,BSA was fluorescently labeled,lower than that of 4-CHF2-SPiDER-RED-βGal,low,–,–,–,–,–,–
CN(C)c1ccc2c(c1)[Si](C)(C)c1c(ccc(O[C@@H]3O[C@H](CO)[C@H](O)[C@H](O)[C@H]3O)c1CF)C21OC(=O)c2ccccc21 (some centres unmarked) [4-CH2F-SPiDER-RED-βGal],emit fluorescence specifically in response to enzyme activity of β-galactosidase,fluorescently label bovine serum albumin (BSA) protein,–,–,–,no red fluorescence signal was obtained,selective fluorescence imaging of the region having β-galactosidase activity was possible; also recorded: can be detected at a single-cell level,no diffusion of fluorescence,higher fluorescence increasing rate than 2-CHF2-SPiDER-RED-βGal,higher reactivity with β-galactosidase,red fluorescence derived from the test compound was observed only in HEK-lacZ cells
"CN(C)c1ccc2c(c1)[Si](C)(C)c1c(ccc(O)c1CO)C21OC(=O)c2ccccc21 (centres unmarked) [4-CH2OH-SPiDER-RED, reference compound]",–,fluorescence was not observed,–,–,–,–,–,–,–,–,–
